Experimental data from patent publication US20240132431A1, “METHOD FOR ALKYLATING ACIDIC FUNCTIONAL GROUP” (Chugai Seiyaku Kabushiki Kaisha, priority 2021, published 2024).

Target: T1, Bcl-2 protein (Recombinant Human Bcl-2 Protein) (Homo sapiens, UniProt P10415)
T1 construct: purchased Novus NBP2-34889
Assay: Binding evaluation of mixture library compounds to Bcl-2 using AS-MS (affinity selection mass spectrometry)
Method in brief: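 Pooled library of ~1200 compounds ([…] each, final) incubated with recombinant human Bcl-2 (20 μM final) in Tris-HCl pH 7.4, NaCl, Tween-20, DTT buffer, dark, 23° C., 1 h. Bound fraction recovered by SEC spin column, organic extraction, reversed-phase LC/MS. ASMS Ratio (%) = (A−C)/B×100 versus protein-free standard and SEC blank.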

T1 sequence (P10415 whole entry): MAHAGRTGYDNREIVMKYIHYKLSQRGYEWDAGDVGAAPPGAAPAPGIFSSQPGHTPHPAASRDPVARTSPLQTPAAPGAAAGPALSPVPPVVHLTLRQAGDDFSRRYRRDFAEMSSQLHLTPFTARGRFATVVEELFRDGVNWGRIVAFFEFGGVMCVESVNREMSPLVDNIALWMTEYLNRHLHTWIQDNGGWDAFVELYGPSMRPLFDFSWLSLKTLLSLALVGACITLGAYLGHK

Row | ASMS ratio (%) (n = 1) | ASMS ratio (%) (n = 2) | Structure (SMILES)
1 | 8.2 | 4.6 | CCOc1cccc(-c2cc(CN3CCN(c4ccc(C(=O)NS(=O)(=O)c5ccc(NCCSc6ccccc6)c(C(F)(F)F)c5)cc4)CC3)cc(OC(F)(F)F)c2)c1 [B2R063-01, 4-[4-[[3-(3-Ethoxyphenyl)-5-(trifluoromethoxy)phenyl]methyl]piperazin-1-yl]-N-[4-(2-phenylsulfanylethylamino)-3-(trifluoromethyl)phenyl]sulfonylbenzamide]
2 | 4.2 | −7.4 | CCOc1cncc(-c2cc(CN3CCN(c4ccc(C(=O)NS(=O)(=O)c5ccc(NCCSc6ccccc6)c(C(F)(F)F)c5)cc4)CC3)cc(OC(F)(F)F)c2)c1 [B2R064-01, 4-[4-[[3-(5-Ethoxypyridin-3-yl)-5-(trifluoromethoxy)phenyl]methyl]piperazin-1-yl]-N-[4-(2-phenylsulfanylethylamino)-3-(trifluoromethyl)phenyl]sulfonylbenzamide]
3 | 3.8 | 0.3 | CCOc1cccc(-c2ccc(CN3CCN(c4ccc(C(=O)NS(=O)(=O)c5ccc(NCCSc6ccccc6)c(C(F)(F)F)c5)cc4)CC3)c3ccccc23)c1 [B2R065-01]
4 | 19.8 | −10.7 | CCOc1cncc(-c2ccc(CN3CCN(c4ccc(C(=O)NS(=O)(=O)c5ccc(NCCSc6ccccc6)c(C(F)(F)F)c5)cc4)CC3)c3ccccc23)c1 [B2R066-01, 4-[4-[[4-(5-Ethoxypyridin-3-yl)naphthalen-1-yl]methyl]piperazin-1-yl]-N-[4-(2-phenylsulfanylethylamino)-3-(trifluoromethyl)phenyl]sulfonylbenzamide]
5 | 8.0 | 0.0 | CCOc1cccc(-c2csc(CN3CCN(c4ccc(C(=O)NS(=O)(=O)c5ccc(NCCSc6ccccc6)c(C(F)(F)F)c5)cc4)CC3)c2)c1 [B2R067-01, 4-[4-[[4-(3-Ethoxyphenyl)thiophen-2-yl]methyl]piperazin-1-yl]-N-[4-(2-phenylsulfanylethylamino)-3-(trifluoromethyl)phenyl]sulfonylbenzamide]
6 | 0.0 | 0.0 | CCOc1cncc(-c2csc(CN3CCN(c4ccc(C(=O)NS(=O)(=O)c5ccc(NCCSc6ccccc6)c(C(F)(F)F)c5)cc4)CC3)c2)c1 [B2R068-01, 4-[4-[[4-(5-Ethoxypyridin-3-yl)thiophen-2-yl]methyl]piperazin-1-yl]-N-[4-(2-phenylsulfanylethylamino)-3-(trifluoromethyl)phenyl]sulfonylbenzamide]
7 | 12.3 | 18.5 | CCOc1cccc(C#Cc2ccccc2CN2CCN(c3ccc(C(=O)NS(=O)(=O)c4ccc(NCCSc5ccccc5)c(C(F)(F)F)c4)cc3)CC2)c1 [B2R069-01, 4-[4-[[2-[2-(3-Ethoxyphenyl)ethynyl]phenyl]methyl]piperazin-1-yl]-N-[4-(2-phenylsulfanylethylamino)-3-(trifluoromethyl)phenyl]sulfonylbenzamide]
8 | 14.3 | −9.0 | CCOc1cccc(-c2ccccc2CN2CCN(c3ccc(C(=O)NS(=O)(=O)c4ccc(NCCSc5ccccc5)c(C(F)(F)F)c4)nn3)CC2)c1 [B2R071-01, 6-[4-[[2-(3-Ethoxyphenyl)phenyl]methyl]piperazin-1-yl]-N-[4-(2-phenylsulfanylethylamino)-3-(trifluoromethyl)phenyl]sulfonylpyridazine-3-carboxamide]
9 | 21.4 | 11.4 | CCOc1cncc(-c2ccccc2CN2CCN(c3ccc(C(=O)NS(=O)(=O)c4ccc(NCCSc5ccccc5)c(C(F)(F)F)c4)nn3)CC2)c1 [B2R072-01, 6-[4-[[2-(5-Ethoxypyridin-3-yl)phenyl]methyl]piperazin-1-yl]-N-[4-(2-phenylsulfanylethylamino)-3-(trifluoromethyl)phenyl]sulfonylpyridazine-3-carboxamide]
10 | 24.0 | 0.0 | CCOc1cccc(-c2ccc(CN3CCN(c4ccc(C(=O)NS(=O)(=O)c5ccc(NCCSc6ccccc6)c(C(F)(F)F)c5)nn4)CC3)cc2C)c1 [B2R073-01, 6-[4-[[4-(3-Ethoxyphenyl)-3-methylphenyl]methyl]piperazin-1-yl]-N-[4-(2-phenylsulfanylethylamino)-3-(trifluoromethyl)phenyl]sulfonylpyridazine-3-carboxamide]
11 | 8.6 | 0.0 | CCOc1cccc(-c2ccc(CN3CCN(c4ccc(C(=O)NS(=O)(=O)c5ccc(NCCSc6ccccc6)c(C(F)(F)F)c5)nn4)CC3)c(CC)c2)c1 [B2R075-01, 6-[4-[[4-(3-Ethoxyphenyl)-2-ethylphenyl]methyl]piperazin-1-yl]-N-[4-(2-phenylsulfanylethylamino)-3-(trifluoromethyl)phenyl]sulfonylpyridazine-3-carboxamide]
12 | 3.9 | 19.7 | CCOc1cncc(-c2ccc(CN3CCN(c4ccc(C(=O)NS(=O)(=O)c5ccc(NCCSc6ccccc6)c(C(F)(F)F)c5)nn4)CC3)c(CC)c2)c1 [B2R076-01, 6-[4-[[4-(5-Ethoxypyridin-3-yl)-2-ethylphenyl]methyl]piperazin-1-yl]-N-[4-(2-phenylsulfanylethylamino)-3-(trifluoromethyl)phenyl]sulfonylpyridazine-3-carboxamide]
13 | 0.0 | 0.0 | CCOc1cccc(-c2ccc(CN3CCN(c4ccc(C(=O)NS(=O)(=O)c5ccc(NCCSc6ccccc6)c(C(F)(F)F)c5)nn4)CC3)cc2F)c1 [B2R077-01, 6-[4-[[4-(3-Ethoxyphenyl)-3-fluorophenyl]methyl]piperazin-1-yl]-N-[4-(2-phenylsulfanylethylamino)-3-(trifluoromethyl)phenyl]sulfonylpyridazine-3-carboxamide]
14 | 15.8 | 11.7 | CCOc1cncc(-c2ccc(CN3CCN(c4ccc(C(=O)NS(=O)(=O)c5ccc(NCCSc6ccccc6)c(C(F)(F)F)c5)nn4)CC3)cc2F)c1 [B2R078-01, 6-[4-[[4-(5-Ethoxypyridin-3-yl)-3-fluorophenyl]methyl]piperazin-1-yl]-N-[4-(2-phenylsulfanylethylamino)-3-(trifluoromethyl)phenyl]sulfonylpyridazine-3-carboxamide]
15 | 16.7 | 21.2 | CCOc1cncc(-c2ccc(CN3CCN(c4ccc(C(=O)NS(=O)(=O)c5ccc(NCCSc6ccccc6)c(C(F)(F)F)c5)nn4)CC3)c(OC)c2)c1 [B2R080-01, 6-[4-[[4-(5-Ethoxypyridin-3-yl)-2-methoxyphenyl]methyl]piperazin-1-yl]-N-[4-(2-phenylsulfanylethylamino)-3-(trifluoromethyl)phenyl]sulfonylpyridazine-3-carboxamide]
16 | 21.1 | −8.8 | CCOc1cccc(-c2cc(CN3CCN(c4ccc(C(=O)NS(=O)(=O)c5ccc(NCCSc6ccccc6)c(C(F)(F)F)c5)nn4)CC3)cc(OCC)c2)c1 [B2R081-01, 6-[4-[[3-Ethoxy-5-(3-ethoxyphenyl)phenyl]methyl]piperazin-1-yl]-N-[4-(2-phenylsulfanylethylamino)-3-(trifluoromethyl)phenyl]sulfonylpyridazine-3-carboxamide]
17 | 0.0 | 0.0 | CCOc1cncc(-c2cc(CN3CCN(c4ccc(C(=O)NS(=O)(=O)c5ccc(NCCSc6ccccc6)c(C(F)(F)F)c5)nn4)CC3)cc(OCC)c2)c1 [B2R082-01, 6-[4-[[3-Ethoxy-5-(5-ethoxypyridin-3-yl)phenyl]methyl]piperazin-1-yl]-N-[4-(2-phenylsulfanylethylamino)-3-(trifluoromethyl)phenyl]sulfonylpyridazine-3-carboxamide]
18 | 31.9 | −11.1 | CCOc1cccc(-c2cc(CN3CCN(c4ccc(C(=O)NS(=O)(=O)c5ccc(NCCSc6ccccc6)c(C(F)(F)F)c5)nn4)CC3)cc(OC(C)C)c2)c1 [B2R083-01, 6-[4-[[3-(3-Ethoxyphenyl)-5-propan-2-yloxyphenyl]methyl]piperazin-1-yl]-N-[4-(2-phenylsulfanylethylamino)-3-(trifluoromethyl)phenyl]sulfonylpyridazine-3-carboxamide]
19 | 0.0 | 0.0 | CCOc1cncc(-c2cc(OC)c(CN3CCN(c4ccc(C(=O)NS(=O)(=O)c5ccc(NCCSc6ccccc6)c(C(F)(F)F)c5)nn4)CC3)c(OC)c2)c1 [B2R086-01]
20 | 3.8 | 7.1 | CCOc1cccc(-c2cc(CN3CCN(c4ccc(C(=O)NS(=O)(=O)c5ccc(NCCSc6ccccc6)c(C(F)(F)F)c5)nn4)CC3)cc(C(F)(F)F)c2)c1 [B2R087-01, 6-[4-[[3-(3-Ethoxyphenyl)-5-(trifluoromethyl)phenyl]methyl]piperazin-1-yl]-N-[4-(2-phenylsulfanylethylamino)-3-(trifluoromethyl)phenyl]sulfonylpyridazine-3-carboxamide]
21 | 35.3 | 13.1 | CCOc1cncc(-c2cc(CN3CCN(c4ccc(C(=O)NS(=O)(=O)c5ccc(NCCSc6ccccc6)c(C(F)(F)F)c5)nn4)CC3)cc(C(F)(F)F)c2)c1 [B2R088-01, 6-[4-[[3-(5-Ethoxypyridin-3-yl)-5-(trifluoromethyl)phenyl]methyl]piperazin-1-yl]-N-[4-(2-phenylsulfanylethylamino)-3-(trifluoromethyl)phenyl]sulfonylpyridazine-3-carboxamide]
22 | 3.4 | −9.2 | CCOc1cccc(-c2cc(CN3CCN(c4ccc(C(=O)NS(=O)(=O)c5ccc(NCCSc6ccccc6)c(C(F)(F)F)c5)nn4)CC3)cc(OC(F)(F)F)c2)c1 [B2R089-01]
